Source: patent US9284531B2, “Differentiation of human pluripotent stem cells into cells expressing mature hepatocyte markers by 2D and bioreactor culture” (Takara Bio Europe AB, priority 2009, dated 2016)

Columns and labels:
[1] = tested on: HFF; assay: HFF feeder cell experiments in 2D cultures and bioreactors (activin A production, proliferation); type: cell-based, human
Method: The metabolic activity and differentiation of the cells inside the bioreactors were characterized on a daily basis by measuring soluble factors in the medium outflow and in the recirculating medium. The following parameters were measured using automated clinical chemistry analyzers (Roche Diagnostics, Heidelberg, Germany): α-fetoprotein (AFP), alkaline phosphatase (AP), alanine transaminase (ALT), aspartate transaminase (AST), beta-human chorionic gonadotropin (β-hCG), c-peptide, carcinoembryonic antigen (CEA), cytokeratin fragment 19 (Cyfra 21-1), erythropoetin, estradiol, follicle stimulating hormone (FSH), factors II-V-X-XIII, fibrinogen, gamma-glutamyltransferase (GGT), glucose, lactate, lactate dehydrogenase (LDH), luteinizing hormone, neuronspecific enolase (NSE), osmolality, osteocalcin, pseudocholinesterase (PCHE), prealbumin progesterone, prolactin, S-100, thyroid-stimulating hormone (TSH), tissue plasminogen activator (TPA), transferrin (for a detailed description of the measurement methods see Table 8 in appendix). Additionally glutamine, glutamate, glucose, lactate, ammonium, pH, sodium (Na+), potassium (K+) were measured with a BioProfile 100 Plus device (Nova Biomedical, Waltham, Mass., USA). Activin A, insulin and albumin were measured with enzyme-linked immunosorbent assays (ELISAs) following the manufacturer's recommendations (activin A using products DY338, DY999, DY994, DY995 from R&D Systems, Wiesbaden-Nordenstadt, Germany; insulin using an ELISA from Invitrogen; albumin using an ELISA from Albuwell, Exocell Inc., Philadelphia, Pa., USA). Urea was measured using a colorimetric determination kit (QuantiChrom, BioAssay Systems, Hayward, Calif., USA). Galactose and sorbitol concentrations were measured by enzymatic assays (Roche Diagnostics).
The pluripotency supporting activity of the HFF could be correlated with their production of activin A. To further examine the behaviour of the HFF feeder cells several experiments only with HFF were carried out in 2D cultures and in two bioreactors.
In one experiment, the bioreactor is inoculated with active HFF that will be cultured in medium supplemented with serum and bFGF to stimulate HFF proliferation. Increase of the cell number is monitored by the levels of glucose consumption and lactate production. When a sufficient cell number is reached culture medium is changed to hBS medium for conditioning. Optimal medium exchange rates have to be determined for example measuring activin A and glucose concentrations in the conditioned medium as quality control parameters. A low glucose level might indicate the demand for increasing the medium feed rate and a low activin A level might be a sign for insufficient conditioning unsuitable to promote hESC pluripotency.

[2] = tested on: CYP3A4; assay: CYP P450 activity test in bioreactor cultures (midazolam to 1'OH midazolam); details: both bioreactors HepDiff-1 and HepDiff-2, days 40 and 47, 3 μM at start
Method: (§1) Bioreactor cultures that were treated with the hepatic differentiation protocol were tested or their ability to metabolize phenacetin, diclophenac and midazolam via the phase I cytochrome (CYP) P450 enzymes CYP1A2, CYP2C9 and CYP3A4, respectively. At days 40 and 47 after inoculation of the cells a CYP P450 activity test was performed according to the scheme:
(§2) For this purpose, fresh medium inflow and medium outflow was closed and a cocktail of the test substances was injected into the recirculating medium to get the following concentrations at the beginning of the test: 3 μM Midazolam, 9 μM Diclophenac and 26 μM Phenacetin. During the next 24 hours, the bioreactor was operated in recirculation mode (no fresh medium was added and only the medium recirculation pump recirculates the medium). Samples from the recirculation were taken before starting the experiment and after 1, 4, 8 and 24 hours and analyzed for the metabolites of the test substances by liquid chromatography/mass spectrometry (LC/MS). Analyses were performed at Astrazeneca AB, Gothenburg, Sweden. After the last sample was taken the bioreactor was flushed with fresh medium in single pass mode with two times the volume of the bioreactor and tubing system and then switched to the normal perfusion mode recirculation with fresh medium inflow). […]

[3] = tested on: CYP1A2; assay: CYP P450 activity test in bioreactor cultures (phenacetin to acetaminophen); type: in vitro ADME, human; details: bioreactors HepDiff-1 and HepDiff-2, hESC-derived cells, 26 μM at start, 24 h recirculation, LC/MS
Method: as §1, §2

Molecule: basic fibroblast growth factor [bFGF]
- mitogenic effect on HFF ([1]; bioreactor experiment HFF-2, medium supplemented with serum replacement): not observed
- activin A production by HFF ([1]; medium containing serum replacer): stimulated
- activin A production by HFF ([1]; medium supplemented with serum): did not stimulate
- mitogenic effect on active HFF ([1]; medium supplemented with serum, 2D and bioreactor experiment HFF-1): strong mitogenic effect

Molecule: Cc1ncc2n1-c1ccc(Cl)cc1C(c1ccccc1F)=NC2 [midazolam, Midazolam]
- metabolism of midazolam [2]: no metabolism

Molecule: CCOc1ccc(NC(C)=O)cc1 [phenacetin, Phenacetin]
- metabolism of phenacetin by CYP1A1/1A2 [3]: Significant metabolism
